The results in this text go back to patent US7939558B2, “Compounds having activity in increasing ion transport by mutant-CFTR and uses thereof” (The Regents of the University of California, priority 2004, dated 2011).

The nature of series [1]: Pharmacokinetics in rats after intravenous bolus. Conditions: 5 mg/Kg intravenous bolus, plasma. In kind it is in vivo, rat. The protocol: A bolus of potentiator-containing solution (5 mg/kg) was administered intravenously in rats over 1 min (male Sprague-Dawley rats, 360-420 grams) by a jugular vein catheter. Arterial blood samples (1 ml) were obtained at predetermined times for LCMS analysis.
For analysis of blood samples, collected plasma was chilled on ice, and ice-cold acetonitrile (2:1 v:v) was added to precipitate proteins. Samples were centrifuged at 4° C. at 20,000 g for 10 min. […] The eluate was evaporated, and the residue was reconstituted in 100 μl of mobile phase for HPLC analysis. Reversed-phase HPLC separations were carried out using a Supelco C18 column (2.1×100 mm, 3 μm particle size) connected to a solvent delivery system (Waters model 2690, Milford, Mass.). The solvent system consisted of a linear gradient from 20% CH3CN/10 mM KH2PO4, pH 3 to 95% CH3CN/10 mM KH2PO4, pH 3 over 10 min, followed by 6 min at 95% CH3CN/20 mM NH4OAc (0.2 ml/min flow rate). […] The detection limit was 10 nM and recovery was >90%. Mass spectra were acquired on a mass spectrometer (Alliance HT 2790+ZQ) using negative ion detection, scanning from 200 to 800 Da (Sonawane et al., J. Pharm. Sci. 94:134-143 (2004)).

In a further series the target is G551D-CFTR (Homo sapiens, UniProt P13569, G551D). The series can be described thus: Short-circuit Cl− current in FRT cells expressing G551D-CFTR.
Series [2] deals with multiple drug resistance protein-1 (MDR-1) (Homo sapiens, UniProt P08183). The series can be described thus: MDR-1 activity by rhodamine 123 accumulation in 9HTEo- and 9HTEo-/Dx cells. Conditions: verapamil 100 μM; P-1 and S-1 5 μM.

Sequence of G551D-CFTR (P13569 whole entry G551D): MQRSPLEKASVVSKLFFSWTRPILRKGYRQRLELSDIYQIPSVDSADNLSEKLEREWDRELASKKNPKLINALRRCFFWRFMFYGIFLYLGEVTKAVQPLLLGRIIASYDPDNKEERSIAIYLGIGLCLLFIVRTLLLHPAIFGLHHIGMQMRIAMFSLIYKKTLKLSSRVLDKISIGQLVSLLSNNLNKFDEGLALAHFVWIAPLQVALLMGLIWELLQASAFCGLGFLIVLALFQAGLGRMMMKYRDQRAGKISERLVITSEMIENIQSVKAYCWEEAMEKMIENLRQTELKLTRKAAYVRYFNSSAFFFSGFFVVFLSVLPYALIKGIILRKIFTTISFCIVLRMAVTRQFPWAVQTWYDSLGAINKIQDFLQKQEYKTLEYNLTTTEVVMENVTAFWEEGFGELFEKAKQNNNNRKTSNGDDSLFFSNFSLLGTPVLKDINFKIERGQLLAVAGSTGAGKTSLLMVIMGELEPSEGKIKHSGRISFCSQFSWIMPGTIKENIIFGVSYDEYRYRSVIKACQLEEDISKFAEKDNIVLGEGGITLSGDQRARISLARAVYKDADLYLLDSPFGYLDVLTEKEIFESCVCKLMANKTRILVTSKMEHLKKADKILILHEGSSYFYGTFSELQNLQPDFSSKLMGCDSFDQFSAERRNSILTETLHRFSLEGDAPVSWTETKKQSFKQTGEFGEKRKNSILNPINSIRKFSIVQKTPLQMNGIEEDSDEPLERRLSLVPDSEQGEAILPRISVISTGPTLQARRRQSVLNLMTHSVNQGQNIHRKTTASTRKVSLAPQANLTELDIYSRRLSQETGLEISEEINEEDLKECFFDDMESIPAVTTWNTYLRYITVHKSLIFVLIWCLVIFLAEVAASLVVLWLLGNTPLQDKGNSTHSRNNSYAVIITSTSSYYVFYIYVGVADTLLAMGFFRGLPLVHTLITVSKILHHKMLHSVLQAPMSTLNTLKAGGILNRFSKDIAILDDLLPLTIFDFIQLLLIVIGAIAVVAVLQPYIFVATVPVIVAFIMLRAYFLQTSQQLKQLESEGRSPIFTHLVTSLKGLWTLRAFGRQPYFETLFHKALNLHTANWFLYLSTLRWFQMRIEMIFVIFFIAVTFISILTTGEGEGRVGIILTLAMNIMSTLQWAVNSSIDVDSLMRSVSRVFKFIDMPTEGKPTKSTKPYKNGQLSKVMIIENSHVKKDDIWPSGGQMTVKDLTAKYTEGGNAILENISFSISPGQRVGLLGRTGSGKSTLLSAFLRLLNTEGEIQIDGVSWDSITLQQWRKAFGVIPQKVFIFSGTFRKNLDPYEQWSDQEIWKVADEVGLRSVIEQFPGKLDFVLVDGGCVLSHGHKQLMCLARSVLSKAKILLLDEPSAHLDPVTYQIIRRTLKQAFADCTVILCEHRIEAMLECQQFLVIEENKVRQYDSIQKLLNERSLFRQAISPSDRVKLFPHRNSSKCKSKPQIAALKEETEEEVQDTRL
Experimental for G551D-CFTR: Experiments were done after basolateral membrane permeabilization and in the presence of a transepithelial Cl^− gradient, so that short-circuit current represents apical membrane Cl^− current. […] Cells were plated on a permeable support to generate a polarized epithelium, cultured for 5-7 days, and then incubated at 27° C. for 24 hours. Transepithelial chloride current was measured in a modified Ussing chamber in the presence of a chloride gradient.

On to `CC(C)c1ccc(NC(=O)C(c2ccccc2)N(C)C(=O)Cc2c[nH]c3ccccc23)cc1` (stereo not shown) [Compound P-1, 2-[(2-1H-Indol-3-yl-acetyl)-methyl-amino]-N-(4-isopropyl-phenyl)-2-phenyl-acetamide], for which, in series [1], the “half-time, two-compartment model (first)” value is listed as “approximately 0.2 hour” and the “half-time, two-compartment model (second)” value is around 3600 s. Also, the dissociation constant (Kd) (commonly the free concentration of one partner at which half of the binding sites on the other are occupied at equilibrium, for simple one-to-one binding) at G551D-CFTR is around 1 µM. Further, the “activating potency relative to genistein” value on G551D-CFTR (G551D-CFTR) was 50-100 times. For the same compound, on G551D-CFTR (after application of forskolin, versus forskolin alone), the elevation in current is given as above 10 fold. In addition, the “Cl− current in G551D-CFTR expressing cells” value on G551D-CFTR (after maximal forskolin) is given as “large currents”.
Consider `C=CCNC(=O)c1c[nH]c2ccc(S(=O)(=O)N(C)c3ccccc3OCC)cc2c1=O` [Compound S-1, 6-[(2-Ethoxy-phenyl)-methyl-sulfamoyl]-4-oxo-1,4-dihydro-quinoline-3-carboxylic acid allylamide], for which the “rhodamine 123 dye accumulation in 9HTEo-/Dx cells” value in series [2] is listed as “not affected”.
